Experimental data as given in EP0059645A1, “Method and kit for identification of beta-lactamases” (NATIONAL RESEARCH DEVELOPMENT CORPORATION, priority 1981, dated 1982).
Marks after values point to notes of the source that are not given here.

Assays:
[1] = molecular target: T1, OXA-1 (Escherichia coli, UniProt P13661); test: 6-well visual test with nitrocefin; conditions: 3 minutes, room temperature
[2] = test system: PSE-3; test: 6-well visual test with nitrocefin; conditions: 3 minutes, room temperature
[3] = test system: K17; test: Competitive assay with nitrocefin (RSAI); format: biochemical, Klebsiella 17
Excerpt: (§1) It is convenient to express the results in terms of a Relative Substrate Affinity Index (RSAI) value.
(§2) RSAI = Concentration of competing substrate which gives 50% inhibition of ring-opening hydrolysis of the chromogenic substrate
(§3) Concentration of chromogenic substrate in the assay A high RSAI value therefore indicates a low affinity of the beta-lactamase for that competing substrate, and therefore predicts resistance of a beta-lactam competing substrate to hydrolysis by the beta-lactamase. Low RSAI values, in contrast, predict sensitivity to hydrolysis by a beta-lactamase.
(§4) Beta-lactam antibiotics which bind to the TEM-2 enzyme compete with nitrocefin in the assay. […] . This concentration of ampicillin is a direct estimate of the relative affinity of the TEM-2 enzyme for ampicillin. […] . The RSAI value was therefore 1.3.

[4] = molecular target: T2, TEM-2 (Escherichia coli, UniProt P62593, Q37K); test: 6-well visual test with nitrocefin; conditions: 3 minutes, room temperature
[5] = test system: K10317; test: Competitive assay with nitrocefin (RSAI); format: biochemical, K.aerog. 10317
Excerpt: as §1, §2, §3, §4

[6] = molecular target: T3, PSE-2 (Pseudomonas aeruginosa, UniProt P14489); test: 6-well visual test with nitrocefin; conditions: 3 minutes, room temperature
[7] = molecular target: T4, PSE-4 (Pseudomonas aeruginosa, UniProt P16897); test: 6-well visual test with nitrocefin; conditions: 3 minutes, room temperature
[8] = molecular target: T5, OXA-2 (Escherichia coli, UniProt P0A1V9); test: Competitive assay with nitrocefin (RSAI); format: biochemical, E. coli R46; design: the beta-lactamase has to be extracted from the cells for the purpose of the present invention; made in house; host or cells: E. coli carrying R46 according to the earlier reading (crude cell extract)
[9] = molecular target: T6, Chromosomal, induced beta-lactamase enzyme (Pseudomonas aeruginosa, UniProt P24735); test: Competitive assay with nitrocefin (RSAI); format: biochemical, Ps.aerug. 1937E + ampicillin
T6 construct: Normally, therefore, the beta-lactamase has to be extracted from the cells for the purpose of the present invention; endogenous in cells; host or cells: Pseudomonas aeruginosa 1937E grown with ampicillin

[10] = molecular target: E. cloacae (Enterobacter cloacae, UniProt P05364); test: 6-well visual test with nitrocefin; conditions: 3 minutes, room temperature
[11] = test system: PSE-3; test: Competitive assay with nitrocefin (RSAI); format: biochemical, Ps.aerug. 1920E
[12] = molecular target: T7, Chromosomal, constitutive beta-lactamase enzyme (Enterobacter cloacae, UniProt P05364); test: Competitive assay with nitrocefin (RSAI); format: biochemical, E. cloacae
T7 construct: Normally, therefore, the beta-lactamase has to be extracted from the cells for the purpose of the present invention; endogenous in cells

[13] = molecular target: T3, PSE-2; test: Competitive assay with nitrocefin (RSAI); format: biochemical, Ps.aerug. 1973E; design: Normally, therefore, the beta-lactamase has to be extracted from the cells for the purpose of the present invention; endogenous in cells
[14] = molecular target: Ps +AMP (Chromosomal) (Pseudomonas aeruginosa, UniProt P24735); test: 6-well visual test with nitrocefin; conditions: 3 minutes, room temperature
[15] = molecular target: Chromosomal, hyper-induced beta-lactamase enzyme (Escherichia coli, UniProt P00811); test: Competitive assay with nitrocefin (RSAI); format: biochemical, E. coli SNU35; design: Normally, therefore, the beta-lactamase has to be extracted from the cells for the purpose of the present invention; endogenous in cells; host or cells: E. coli SNU 35 (artificially produced strain)
[16] = molecular target: T8, SHV-1 (Escherichia coli, UniProt P0AD63); test: 6-well visual test with nitrocefin; conditions: 3 minutes, room temperature
[17] = molecular target: T9, PSE-1 (Pseudomonas aeruginosa, UniProt Q03170); test: Competitive assay with nitrocefin (RSAI); format: biochemical, Ps.aerug. 1937E; design: Normally, therefore, the beta-lactamase has to be extracted from the cells for the purpose of the present invention; endogenous in cells
[18] = molecular target: T1, OXA-1; test: Competitive assay with nitrocefin (RSAI); format: biochemical, E. coli 1527E; design: the beta-lactamase has to be extracted from the cells for the purpose of the present invention; made in house; host or cells: E. coli 1527E according to the earlier reading (crude cell extract)
[19] = molecular target: T5, OXA-2; test: 6-well visual test with nitrocefin; conditions: 3 minutes, room temperature
[20] = molecular target: T9, PSE-1; test: 6-well visual test with nitrocefin; conditions: 3 minutes, room temperature
[21] = molecular target: T2, TEM-2; test: Competitive assay with nitrocefin (RSAI); format: biochemical, E. coli 1725E
Excerpt: as §1, §2, §3, §4

[22] = molecular target: T4, PSE-4; test: Competitive assay with nitrocefin (RSAI); format: biochemical, Ps.aerug. 1559E; design: Normally, therefore, the beta-lactamase has to be extracted from the cells for the purpose of the present invention; endogenous in cells
[23] = test system: HMS-1; test: Competitive assay with nitrocefin (RSAI); format: biochemical, E. coli 1946
[24] = test system: HMS-1; test: 6-well visual test with nitrocefin; conditions: 3 minutes, room temperature
[25] = molecular target: T10, OXA-3 (Pseudomonas aeruginosa, UniProt Q51429); test: 6-well visual test with nitrocefin; conditions: 3 minutes, room temperature
[26] = molecular target: T11, TEM-1 (Escherichia coli, UniProt P62593); test: 6-well visual test with nitrocefin; conditions: 3 minutes, room temperature
[27] = molecular target: T8, SHV-1; test: Competitive assay with nitrocefin (RSAI); format: biochemical, E. coli 2008E; design: the beta-lactamase has to be extracted from the cells for the purpose of the present invention; made in house; host or cells: E. coli 2008E (crude cell extract)
[28] = molecular target: T11, TEM-1; test: Competitive assay with nitrocefin (RSAI); format: biochemical, E. coli 2136E; design: the beta-lactamase has to be extracted from the cells for the purpose of the present invention; made in house; host or cells: E. coli 2136E (plasmid-bearing strain; crude cell extract)
[29] = test system: K1073; test: Competitive assay with nitrocefin (RSAI); format: biochemical, Klebsiella 1073
Excerpt: as §1, §2, §3, §4

[30] = molecular target: T10, OXA-3; test: Competitive assay with nitrocefin (RSAI); format: biochemical, E. coli R57B; design: Normally, therefore, the beta-lactamase has to be extracted from the cells for the purpose of the present invention; endogenous in cells
[31] = molecular target: TEM-2 beta-lactamase (Escherichia coli, UniProt P62593, Q37K); format: biochemical, E. coli C9 RP4
[32] = test system: O=C(Cc1cccs1)N[C@@H]1C(=O)N2C(C(=O)O)=C(C=Cc3ccc([N+](=O)[O-])cc3[N+](=O)[O-])CS[C@H]12; test: purified protein, by the assay type; conditions: pH 7.0; 37.0 °C
[33] = well D: Mecillinam 20:1 to nitrocefin
[34] = well C: Cefamandole 1:1 to nitrocefin
[35] = well B: Cefotaxime 100:1 to nitrocefin

| Compound | RSAI [3] | RSAI [5] | RSAI [8] | RSAI [9] | RSAI [11] | RSAI [12] | RSAI [13] | RSAI [15] | RSAI [17] | RSAI [18] | RSAI [21] | RSAI [22] | RSAI [23] | RSAI [27] | RSAI [28] | RSAI [29] | RSAI [30] | further results |
| --- | --- | --- | --- | --- | --- | --- | --- | --- | --- | --- | --- | --- | --- | --- | --- | --- | --- | --- |
| CC1(C)S[C@@H]2[C@H](/N=C/N3CCCCCC3)C(=O)N2[C@H]1C(=O)O [Mecil-linam, Mecillinam] | 260 | 80 | 100 | 68 | 15 | 1.3* | 450 | 0.7* | 66 | 400 | 80 | 140 | 2 | 80 | 90 | 102 | 30 | Score in 6-well visual test [1, 33]: ++; Score in 6-well visual test [2, 33]: +; Score in 6-well visual test [4, 33]: ++; Score in 6-well visual test [6, 33]: ++; Score in 6-well visual test [7, 33]: ++; Score in 6-well visual test [10, 33]: -; Score in 6-well visual test [14, 33]: +; Score in 6-well visual test [16, 33]: ++; Score in 6-well visual test [19, 33]: +; Score in 6-well visual test [20, 33]: ++; Score in 6-well visual test [24, 33]: -; Score in 6-well visual test [25, 33]: +; Score in 6-well visual test [26, 33]: ++ |
| Cn1nnnc1SCC1=C(C(=O)O)N2C(=O)[C@@H](NC(=O)[C@H](O)c3ccccc3)[C@H]2SC1 [Cefaman-dole, Cefamandole] | 1.8 | 5 | 1.7 | 5 | 0.006 | 0.03 | 0.06 | 0.12* | 6.9 | 1.5 | 11 | 9 | 0.5 | 6.6 | 11 | 3.9 | 0.75 | Score in 6-well visual test [1, 34]: ++; Score in 6-well visual test [2, 34]: -; Score in 6-well visual test [4, 34]: ++; Score in 6-well visual test [6, 34]: -; Score in 6-well visual test [7, 34]: ++; Score in 6-well visual test [10, 34]: -; Score in 6-well visual test [14, 34]: +; Score in 6-well visual test [16, 34]: ++; Score in 6-well visual test [19, 34]: +; Score in 6-well visual test [20, 34]: ++; Score in 6-well visual test [24, 34]: +; Score in 6-well visual test [25, 34]: +; Score in 6-well visual test [26, 34]: ++ |
| CO/N=C(\C(=O)N[C@@H]1C(=O)N2C(C(=O)O)=C(COC(C)=O)CS[C@H]12)c1csc(N)n1 [Cefotaxime] | 60 | 320 | 12 | 0.004 | 100 | 0.0006 | 9.6 | 0.004 | 70 | 9 | 600 | 50 | 11 | 400 | 400 | 330 | 15 | Score in 6-well visual test [1, 35]: -; Score in 6-well visual test [2, 35]: +; Score in 6-well visual test [4, 35]: ++; Score in 6-well visual test [6, 35]: -; Score in 6-well visual test [7, 35]: +; Score in 6-well visual test [10, 35]: -; Score in 6-well visual test [14, 35]: -; Score in 6-well visual test [16, 35]: ++; Score in 6-well visual test [19, 35]: -; Score in 6-well visual test [20, 35]: +; Score in 6-well visual test [24, 35]: -; Score in 6-well visual test [25, 35]: -; Score in 6-well visual test [26, 35]: ++ |
| Cc1onc(-c2ccccc2Cl)c1C(=O)N[C@@H]1C(=O)N2[C@@H]1SC(C)(C)[C@@H]2C(=O)O [Cloxacillin] | 14 | 3.7* | 30 | 0.00017 | 0.24 | 0.00004 | 4.5 | 0.0000016* | 2 | 0.6 | 0.5 | 3.3 | 0.02 | 2 | 0.75 | 4* | 0.01 | nature of the binding to the enzyme ([31]; from kinetics of nitrocefin cleavage): does not undergo irreversible binding |
| (Pseudomonas aeruginosa) |  |  |  |  |  |  |  |  |  |  |  |  |  |  |  |  |  | Km [32]: 28 µg/mL |
| CC1(C)S[C@@H]2[C@H](NC(=O)[C@H](N)c3ccccc3)C(=O)N2[C@H]1C(=O)O [Ampi-cillin, ampicillin] | 2.9 | 9.4 | 10 | 0.12 | 1.7 | 0.02 | 0.85 | 0.03* | 0.4 | 4 | 2.6 | 2.7 | 0.5 | 3 | 4 | 6.7 | 0.2 | RSAI ([31]; without pre-incubation, nitrocefin 50 micrograms/ml, after 4.5 minutes, 37°C): 1.3 |
